Key:
Assay type in all cases: in vivo
[1] = test system: wheat (Triticum aestivum); assay: Test B preemergence, wheat; settings: Preemergence, scale 0 to 100
In short: (§1)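 Greenhouse preemergence test: loam/sand soil, compound in surfactant-containing non-phytotoxic solvent, evaluated visually after 13–15 days on a 0–100 control scale.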

[2] = test system: velvetleaf (Abutilon theophrasti); assay: Test A preemergence, velvetleaf; settings: 0 to 100 scale (0 no effect, 100 complete control)
In short: (§2)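 Pre: directed soil spray after sowing in loam/sand. Post: seedlings at 1–2 leaf stage, 2–10 cm. Vehicle: non-phytotoxic solvent mix + surfactant. Greenhouse ~10 d; visual injury 0–100 vs untreated controls.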

[3] = test system: giant foxtail (Setaria faberii); assay: Test B preemergence, giant foxtail; settings: scale 0 to 100
Excerpt: (§3) Seeds of plant species selected from blackgrass (Alopecurus myosuroides), downy bromegrass (Bromus tectorum), green foxtail (Setaria viridis), Italian ryegrass (Lolium multiflorum), wheat (Triticum aestivum), wild oat (Avena fatua), catchweed bedstraw (Galium aparine), bermudagrass (Cynodon dactylon), Surinam grass (Brachiaria decumbens), cocklebur (Xanthium strumarium), corn (Zea mays), large crabgrass (Digitaria sanguinalis), woolly cupgrass (Eriochloa villosa), giant foxtail (Setaria faberii), goosegrass (Eleusine indica), johnsongrass (Sorghum halepense), kochia (Kochia scoparia), lambsquarters (Chenopodium album), morningglory (Ipomoea coccinea), nightshade (eastern black nightshade, Solanum ptycanthum), yellow nutsedge (Cyperus esculentus), pigweed (Amaranthus retroflexus), ragweed (common ragweed, Ambrosia elatior), soybean (Glycine max), sunflower (common oilseed sunflower, Helianthus annuus), Russian thistle (Salsola kali), and velvetleaf (Abutilon theophrasti) were planted into a blend of loam soil and sand and treated preemergence with test compounds formulated in a non-phytotoxic solvent mixture which included a surfactant. Treated plants and controls were maintained in a greenhouse for 13 to 15 days, after which time all species were compared to controls and visually evaluated. Plant response ratings, summarized in Table B, are based on a scale of 0 to 100 where 0 is no effect and 100 is complete control. A dash (-) response means no test result.

[4] = test system: pigweed (Amaranthus retroflexus); assay: Test A preemergence, pigweed; settings: 0 to 100 scale (0 no effect, 100 complete control)
In short: as §2

[5] = test system: cocklebur (Xanthium strumarium); assay: Test B preemergence, cocklebur; settings: scale 0 to 100
Excerpt: as §3

[6] = test system: umbrella sedge (Cyperus difformis); assay: Test B flooded paddy test, umbrella sedge; settings: Flood, scale 0 to 100
In short: (§4)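 Paddy-water application to 2-leaf plants in pots held under 3 cm of flooding; response is a 0–100 visual control rating against controls after 13 to 15 days, and a dash marks a missing result.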

[7] = test system: pigweed (Amaranthus retroflexus); assay: Test B preemergence, pigweed; settings: scale 0 to 100
Excerpt: as §3

rice (Oryza sativa) = assay: Test B flooded paddy test, rice; settings: Flood, scale 0 to 100
In short: as §4

corn (Zea mays) = assay: Test A postemergence, corn; settings: 0 to 100 scale (0 no effect, 100 complete control)
In short: as §2

[8] = test system: catchweed bedstraw (Galium aparine); assay: Test B preemergence, catchweed bedstraw; settings: scale 0 to 100
Excerpt: as §3

[9] = test system: wheat (Triticum aestivum); assay: Test A postemergence, wheat; settings: 0 to 100 scale (0 no effect, 100 complete control)
In short: as §2

[10] = test system: lambsquarters (Chenopodium album); assay: Test B preemergence, lambsquarters; settings: scale 0 to 100
Excerpt: as §3

[11] = test system: large crabgrass (Digitaria sanguinalis); assay: Test A postemergence, large crabgrass; settings: 0 to 100 scale (0 no effect, 100 complete control)
In short: as §2

[12] = test system: wheat (Triticum aestivum); assay: Test A preemergence, wheat; settings: 0 to 100 scale (0 no effect, 100 complete control)
In short: as §2

[13] = test system: nightshade (eastern black nightshade, Solanum ptycanthum); assay: Test B preemergence, nightshade; settings: scale 0 to 100
Excerpt: as §3

[14] = test system: sunflower (common oilseed sunflower, Helianthus annuus); assay: Test B preemergence, sunflower; settings: Preemergence, scale 0 to 100
In short: as §1

[15] = test system: blackgrass (Alopecurus myosuroides); assay: Test B preemergence, blackgrass; settings: scale 0 to 100
Excerpt: as §3

[16] = test system: goosegrass (Eleusine indica); assay: Test B preemergence, goosegrass; settings: scale 0 to 100
Excerpt: as §3

[17] = test system: barnyardgrass (Echinochloa crus-galli); assay: Test B flooded paddy test, barnyardgrass; settings: Flood
In short: as §4

## CC1(C)CC(S(=O)(=O)Cc2c(C(F)(F)Cl)nc3n(c2=O)CCC3)=NO1 [Compound 18]
[1]; 16 g ai/ha
  Plant response rating, Wheat: 0
[1]; 31 g ai/ha
  Plant response rating, Wheat: 0
[1]; 62 g ai/ha
  Plant response rating, Wheat: 50
[2]; 125 g ai/ha
  Plant response rating, Velvetleaf: 0
[2]; 500 g ai/ha
  Plant response rating, Velvetleaf: 60
[3]; 16 g ai/ha
  Plant response rating, Foxtail, Giant: 0
[3]; 31 g ai/ha
  Plant response rating, Foxtail, Giant: 80
[3]; 62 g ai/ha
  Plant response rating, Foxtail, Giant: 85
[3]; 125 g ai/ha
  Plant response rating, Foxtail, Giant: 98
[4]; 125 g ai/ha
  Plant response rating, Pigweed: 60
[4]; 500 g ai/ha
  Plant response rating, Pigweed: 100
[5]; 16 g ai/ha
  Plant response rating, Cocklebur: 0
[5]; 31 g ai/ha
  Plant response rating, Cocklebur: 0
[5]; 62 g ai/ha
  Plant response rating, Cocklebur: 0
[5]; 125 g ai/ha
  Plant response rating, Cocklebur: 0
[6]; 31 g ai/ha
  Plant response rating, Sedge, Umbrella: 0
[6]; 62 g ai/ha
  Plant response rating, Sedge, Umbrella: 0
[6]; 125 g ai/ha
  Plant response rating, Sedge, Umbrella: 0
[6]; 250 g ai/ha
  Plant response rating, Sedge, Umbrella: 0
[7]; 16 g ai/ha
  Plant response rating, Pigweed: 0
[7]; 31 g ai/ha
  Plant response rating, Pigweed: 100
[7]; 62 g ai/ha
  Plant response rating, Pigweed: 100
[7]; 125 g ai/ha
  Plant response rating, Pigweed: 100
Rice (Oryza sativa); 31 g ai/ha
  Plant response rating, Rice: 0
Rice (Oryza sativa); 62 g ai/ha
  Plant response rating, Rice: 0
Rice (Oryza sativa); 125 g ai/ha
  Plant response rating, Rice: 0
Rice (Oryza sativa); 250 g ai/ha
  Plant response rating, Rice: 0
Corn (Zea mays); 125 g ai/ha
  Plant response rating, Corn: 0
Corn (Zea mays); 500 g ai/ha
  Plant response rating, Corn: 40
[8]; 62 g ai/ha
  Plant response rating, Galium: 0
[8]; 125 g ai/ha
  Plant response rating, Galium: 0
[9]; 125 g ai/ha
  Plant response rating, Wheat: 0
[9]; 500 g ai/ha
  Plant response rating, Wheat: 60
[10]; 16 g ai/ha
  Plant response rating, Lambsquarters: 0
[10]; 31 g ai/ha
  Plant response rating, Lambsquarters: 0
[10]; 62 g ai/ha
  Plant response rating, Lambsquarters: 75
[10]; 125 g ai/ha
  Plant response rating, Lambsquarters: 85
[11]; 125 g ai/ha
  Plant response rating, Crabgrass, Large: 60
[11]; 500 g ai/ha
  Plant response rating, Crabgrass, Large: 90
[12]; 125 g ai/ha
  Plant response rating, Wheat: 0
[12]; 500 g ai/ha
  Plant response rating, Wheat: 30
[13]; 16 g ai/ha
  Plant response rating, Nightshade: 0
[13]; 31 g ai/ha
  Plant response rating, Nightshade: 0
[13]; 62 g ai/ha
  Plant response rating, Nightshade: 0
[13]; 125 g ai/ha
  Plant response rating, Nightshade: 95
[14]; 16 g ai/ha
  Plant response rating, Sunflower: 0
[14]; 31 g ai/ha
  Plant response rating, Sunflower: 0
[14]; 62 g ai/ha
  Plant response rating, Sunflower: 0
[14]; 125 g ai/ha
  Plant response rating, Sunflower: 0
[15]; 16 g ai/ha
  Plant response rating, Blackgrass: 0
[15]; 31 g ai/ha
  Plant response rating, Blackgrass: 0
[15]; 62 g ai/ha
  Plant response rating, Blackgrass: 10
[15]; 125 g ai/ha
  Plant response rating, Blackgrass: 98
[16]; 16 g ai/ha
  Plant response rating, Goosegrass: 0
[16]; 31 g ai/ha
  Plant response rating, Goosegrass: 95
[16]; 62 g ai/ha
  Plant response rating, Goosegrass: 98
[16]; 125 g ai/ha
  Plant response rating, Goosegrass: 98
[17]; 31 g ai/ha, scale 0 to 100
  Plant response rating, Barnyardgrass: 0
[17]; 62 g ai/ha, scale 0 to 100
  Plant response rating, Barnyardgrass: 0
[17]; 125 g ai/ha, scale 0 to 100
  Plant response rating, Barnyardgrass: 0
[17]; 250 g ai/ha, scale 0 to 100 (0 no effect, 100 complete control)
  Plant response rating, Barnyardgrass: 0

— patent publication US20100099561A1, “HETEROBICYCLIC ALKYLTHIO-BRIDGED ISOXAZOLINES” (E.I. DU PONT DE NEMOURS AND COMPANY, priority 2008, published 2010)
